Laboratory results as given in patent US20210353767A1, “COMPOSITIONS AND METHODS FOR DRUG DELIVERY” (NORTH CAROLINA STATE UNIVERSITY, priority 2018, published 2021).
“And” between values parts separate entries of the source, which are not always exact repeats. Identical values can stand only once. Like-named read-outs stand apart in the source and are kept apart here.

Assays:
[1] = Brain refills: capture of i.v. DBCO-Cy7 at intracranial azide-sNHS depot; type: in vivo; settings: azide-sNHS vs control mice, 24 hours after i.v. administration
Description: Representative images of azide-sNHS and control mice after 24 hours after i.v. administration of DBCO-Cy7. The brain was removed and imaged alone.
Quantitation of intracranial ROI radiant efficiency was measured 24 hours after i.v. DBCO-Cy7 administration. Samples show mean+/−SEM. *=p<0.05, **=p<0.01 by Student's T-test.
Brain Refills. For anesthesia, 1-5% isoflurane was administered before procedures as well as continuously through the stereotaxic setup, and 0.5% lidocaine HCL administered subcutaneous under the incision site prior to surgery. 10-week-old CD1 mice were mounted on a kopf stereotaxic head stage using ear bars and a 5 μl Hamilton syringe placed in needle fixture. For surgery, the area to be incised on the head was shaved and washed with 70% alcohol. An incision with a #10 blade was made from posterior to anterior (start of skull to between eyes) and skin pulled away from incision using sterile Q-tips to expose the skull. The syringe needle was adjusted so the tip was at Bregma, position of the stereotaxic device recorded, and then moved to the desired calculated position where a marking will be made with a surgical marker. The experimental coordinates were −2.5M/L, −1A/P, −3D/V. A small hand drill was then used to make a 1-2 mm size hole in the skull for the injection needle. […] Once complete, the mouse skin was joined by VetBond skin glue and monitored post-surgery. […]

[2] = test system: KPC 4662 pancreatic tumor; settings: average of 4 mice
Description: Allograft Pancreatic Tumor. KPC 4662 pancreatic tumor cells (5e5) were injected in a 1:1 ratio with PBS:Matrigel(Matrigel Matrix 354234, lot 7205011) into the subcutaneous dorsal flanks of CD57B16 mice.
IVIS imaging (Camera #11219, DW434) was performed right before 100 ul of 50 mg/ml DBCO-cy7 retro orbital injections and imaged 24 hours afterwards when most of the unbound DBCO-cy was cleared from systemic circulation. For the refill dose experiments 9-week-old albino c57b16's from Envigo were used. For all other tumor refills, 9-week-old regular c57s from Envigo were used.

[3] = CD1 mice, one month after intradermal injection of 50 μL
Description: H&E slides of mouse skin and tissues from 8 mice were analyzed to determine local or distal effects of an injected depot material. All tissues were evaluated by light microscopy and were graded as: “-”=no changes observed in this tissue for any mouse; “0”=a particular change not present; “1”=change is present at slight/minimal severity; “2”=mild severity, “3”=moderate severity; “4” marked severity; “5”=severe. A grade of 1 represents the minimal detectable change and a 5 represents a change judged to be essentially as severe as possible.

KPC 4662 tumors = settings: pancreatic tumor after a dose of DBCO-cy7
Description: 8 mice were similarly injected with KPC 4662 tumors and allowed to grow over a week until injection of sNHS(N=4) or PBS(N=4). Injection and imaging was performed as described above on the IVIS before and 24 hours after DBCO-cy7 IV injection. Tumors were then explanted imaged to compare to a linear regression alginate gels ROI's that contained the same dose injected IV to obtain a percentage of cy7 captured at the tumor site.
The study employed three tumors injected with a “Click Target” and one control.

[4] = Intradermal tetrazine-sNHS depot, IVIS imaging of TCO-cy5 capture; type: in vivo, mice; settings: for Average Radiant Efficiency: average of 4 mice; for Total Radiant Efficiency Measured within Regions of Interest (ROI): before-injection value subtracted, individual mouse
Description: 50 μL of 0.05M methyl tetrazine-sNHS ester was dissolved in sterile PBS, and injected intradermally into the dorsal flanks of mice CD1 Charles river mice. The first four images in FIG. 8 are pictures of the four mice treated with the “Click-Target” (tetrazine-sNHS) and the four control mice injected with PBS. The last 4 images in FIG. 8 show the fluorescence observed 24 hours after injection of the “Click Prodrug” (TCO-cy5). The IVIS was adjusted for this cy5 fluorophore. […] This experiment was also performed at 1 week with similar results
The total increase in fluorescence after the TCO-cy5 injection (at 1 day) over the intradermal injection ROI's (total radiant efficiency measurement) subtracting the before tco-cy5 image injection value are included below.
The total increase in fluorescence after the TCO-cy5 injection (at 1 week) over the intradermal injection ROI's (total radiant efficiency measurement) subtracting the before tco-cy5 image injection value are included below.

## C[N+]1=C(C=CC2=CC(=CC=C3N(CCCCCC(=O)NCCCCCC(=O)N4Cc5ccccc5C#Cc5ccccc54)c4ccccc4C3(C)C)CCC2)C(C)(C)c2ccccc21.F[P-](F)(F)(F)(F)F [DBCO-Cy7, Cyanine7 DBCO]
[1]
  capture in the brain: click-specific capture

## [N-]=[N+]=NCCC(=O)ON1C(=O)CC(S(=O)(=O)O)C1=O (stereo not shown) [Azide sNHS, 3-Azidopropionic Acid Sulfo-NHS ester]
[2]; 24 hours after first administration of DBCO-cy7
  Average Radiant Efficiency: 9.21 × 10^9
[2]; 24 hours after second administration of DBCO-cy7
  Average Radiant Efficiency: 7.26 × 10^9
[2]; 24 hours after third administration of DBCO-cy7
  Average Radiant Efficiency: 4.12 × 10^9
[3]
  histologic changes (H&E) versus PBS group: no difference between the two groups
KPC 4662 tumors
  radiance relative to control (ROI measurements): four times greater

## methyl tetrazine-sNHS ester
[4]; TCO-cy5 injection at 1 week
  Average Radiant Efficiency: 1.25 × 10^9
[4]; TCO-cy5 injection at 1 day
  Average Radiant Efficiency: 2.72 × 10^9
[4]; increase in fluorescence after TCO-cy5 injection at 1 week
  Total Radiant Efficiency Measured within Regions of Interest (ROI): 1.12 × 10^9 and 1.57 × 10^9 and 1.31 × 10^9 and 1.01 × 10^9
[4]; increase in fluorescence after TCO-cy5 injection at 1 day
  Total Radiant Efficiency Measured within Regions of Interest (ROI): 3.64 × 10^9 and 2.40 × 10^9 and 1.92 × 10^9 and 2.90 × 10^9
